In US6713266B1 (Isodiagnostika Inc., priority 1998, dated 2004):
“And” between values parts separate entries of the source, which are not always exact repeats. Equal values may be shown once.

Tests used:
MoAb CSA-1H6 = assay: Inhibition ELISA to the CSA-DVS-HSA conjugate, MoAb; format: binding, mouse
Description: (§1) Inhibition ELISA Protocol:
(§2) 1. Use Falcon Pro-bind immunoplates.
(§3) 2. Dilute coating antigen to 1 μg/mL in carbonate-bicarbonate buffer. Add 100 μL per well and incubate overnight at 4° C.
(§4) 3. On the same day prepare inhibiting antigen tubes. Aliquot antibodies into glass test tubes. Prepare appropriate antigen concentration in ethanol and add to aliquoted antibody at 10 μL ethanol solution/250 μL antibody. Vortex tubes and incubate overnight at 4° C.
(§5) 4. Shake out wells and wash 3× with 200 μL PBS/0.05% TWEEN™ (polyoxyethylene-sorbitol) (v/v) per well.
(§6) 5. Add 200 μL blocking buffer per well (PBS/2% BSA (w/v)). Incubate 60 min at room temperature.
(§7) 7. Transfer contents of inhibition tubes to antigen-coated plate, 100 μL per well. Incubate 60 min at 37° C.
(§8) 9. Dilute alkaline phosphatase conjugated anti-mouse IgG (Pierce cat#31322) in PBS/0.1% TWEEN™ (polyoxyethylene-sorbitol) (v/v) to 1:5000 concentration. Add 100 μL per well and incubate at 37° C. for 60 min.
(§9) 11. […] Add 100 μL per well and incubate in the dark at room temperature. Absorbance can be read at 405 nm at approximately 15-min intervals.

MoAb CSA-2G9 = assay: as above; format: binding, mouse
Description: as §1, §2, §3, §4, §5, §6, §7, §8, §9

MoAb AM1-2E10 = assay: as above; format: binding, mouse
Description: as §1, §2, §3, §4, §5, §6, §7
(§10) 9. […] Add 100 μL per well and incubate at 37° C. for 60 min.
as §9

MoAb AM1-7F5 = assay: as above; format: binding, mouse
Description: as §1, §2, §3, §4, §5, §6, §7, §10, §9

[1] = test system: Mouse polyclonal sera (CSA-DVS-KLH immunogen); assay: Inhibition ELISA, CSA-DVS-HSA coated plate, mouse polyclonal sera; format: binding; settings: Mouse sera; Table 3; inhibition ELISA to the CSA-DVS-HSA conjugate
Description: as §1, §2, §3, §4, §5, §6, §7, §10, §9

[2] = test system: Mouse polyclonal sera (AM1-DVS-KLH immunogen); assay: Inhibition ELISA to the CSA-DVS-HSA conjugate, mouse polyclonal sera; format: binding
Description: as §1, §2, §3, §4, §5, §6, §7, §10, §9

[3] = test system: Mouse polyclonal sera (AM19-1-DVS (1) - KLH immunogen); assay: Inhibition ELISA, AM19-1-DVS (1) HSA coated plate, mouse polyclonal sera; format: binding
Description: as §1, §2, §3, §4, §5, §6, §7, §10, §9

[4] = test system: Mouse polyclonal sera (AM19-1-DVS (2) - KLH immunogen); assay: Inhibition ELISA, AM19-1-DVS (2) HSA coated plate, mouse polyclonal sera; format: binding
Description: as §1, §2, §3, §4, §5, §6, §7, §10, §9

[5] = test system: Rabbit polyclonal sera (AM19-1-DVS-KLH (1) immunogen); assay: Inhibition ELISA, AM19-1-DVS (1) HSA coated plate, rabbit polyclonal sera; format: binding
Description: as §1, §2, §3, §4, §5, §6, §7, §10, §9
The AM19-1-DVS (1) conjugate was also used to immunize rabbits.

[6] = test system: Mouse polyclonal sera (AM19-9-DVS-KLH immunogen); assay: Inhibition ELISA, AM19-9-DVS-HSA coated plates, mouse polyclonal sera; format: binding
Description: as §1, §2, §3, §4, §5, §6, §7, §10, §9

[7] = test system: Mouse polyclonal sera (AM9-9-DVS-KLH immunogen); assay: Inhibition ELISA, AM19-9-DVS-HSA coated plate, mouse polyclonal sera; format: binding
Description: as §1, §2, §3, §4, §5, §6, §7, §10, §9

MoAb AM19-1-7E12-1 = assay: Inhibition ELISA with AM19-1-DVS (1) coated ELISA plates, MoAb; format: binding, mouse; settings: AM19-1-7E12-1 TCS
Description: as §1, §2, §3, §4, §5, §6, §7, §10, §9

MoAb AM19-1-7E12-2 = assay: as above; format: binding, mouse; settings: AM19-1-7F12-2
Description: as §1, §2, §3, §4, §5, §6, §7, §10, §9

## C/C=C/C[C@@H](C)[C@@H](O)[C@H]1C(=O)N[C@@H](CCC)C(=O)N(C)CC(=O)N(C)[C@@H](CC(C)C)C(=O)N[C@@H](C(C)C)C(=O)N(C)[C@@H](CC(C)C)C(=O)N[C@@H](C)C(=O)N[C@H](C)C(=O)N(C)[C@@H](CC(C)C)C(=O)N(C)[C@@H](CC(C)C)C(=O)N(C)[C@@H](C(C)C)C(=O)N1C [CSG, cyclosporine G]
MoAb CSA-1H6; CSA-1H6, Table 24, CSA, CSG and CSA derivative inhibitors
  Percent Inhibition: 88.6%
MoAb CSA-2G9; CSA-2G9, Table 24, CSA, CSG and CSA derivative inhibitors
  Percent Inhibition: 89.8%
MoAb AM1-2E10; AM1-2E10, Table 24, CSA, CSG and CSA derivative inhibitors
  Percent Inhibition: 61% and 61.2%
MoAb AM1-7F5; AM1-7F5, Table 24, CSA, CSG and CSA derivative inhibitors
  Percent Inhibition: 28.8%

## C=CC[C@@H]1/C=C(\C)C[C@H](C)C[C@H](OC)[C@H]2O[C@@](O)(C(=O)C(=O)N3CCCC[C@H]3C(=O)O[C@H](/C(C)=C/[C@@H]3CC[C@@H](O)[C@H](OC)C3)[C@H](C)[C@@H](O)CC1=O)[C@H](C)C[C@@H]2OC [FK, tacrolimus]
[1]
  Percent Inhibition: 31.9%
[2]; Mouse 1
  Percent Inhibition: 3.5%
[2]; Mouse 2
  Percent Inhibition: 13.0%
[3]; Mouse 1
  Percent Inhibition: 0%
[3]; Mouse 2
  Percent Inhibition: 0%
[4]; Mouse 3
  Percent Inhibition: 0%
[4]; Mouse 4
  Percent Inhibition: 0%
[5]
  Percent Inhibition: 0%
[6]; Mouse 5
  Percent Inhibition: 0%
[6]; Mouse 6
  Percent Inhibition: 0%
[7]; Mouse 1
  Percent Inhibition: 24.2%
[7]; Mouse 2
  Percent Inhibition: 34.5%
MoAb CSA-1H6; CSA-1H6 TCS, Table 16, CSA-DVS-HSA conjugate
  Percent Inhibition of TCS: 0%
MoAb CSA-2G9; CSA-2G9 TCS, Table 16, CSA-DVS-HSA conjugate
  Percent Inhibition of TCS: 10.8%
MoAb AM1-2E10; AM1-2E10 TCS, Table 18, CSA-DVS-HSA coated plate
  Percent Inhibition of TCS: 0%
MoAb AM1-7F5; AM1-7F51, TCS, Table 18, CSA-DVS-HSA coated plate
  Percent Inhibition of TCS: 26.0%
MoAb AM19-1-7E12-1
  Percent Inhibition of TCS: 6.3%
MoAb AM19-1-7E12-2
  Percent Inhibition of TCS: 3.2%
